Source: patent US20250270221A1, “SOLID FORMS OF JAK INHIBITOR AND PROCESS OF PREPARING THE SAME” (Incyte Corporation, priority 2022, published 2025)

Legend:
Type in all cases: physicochemical
[1] = Dynamic vapor sorption (VTI-SA+, sample pre-dried at 60° C.)
Method: The DVS experiment was performed on a VTI-SA+ Vapor Sorption Analyzer from TA Instruments. […] Then the humidity was cycled from 5% RH to 95% RH (adsorption) and back to 5% RH (desorption) with 5% RH interval at a constant temperature of 25° C. The equilibration criteria were 0.010 wt % in 5 minutes with a maximum equilibration time of 180 minutes per step.

[2] = Aqueous solubility of crystalline ruxolitinib di-hydrate; conditions: 20 °C, thermodynamic from solid, 20-25° C.
[3] = Relative humidity testing (physical stability, XRPD)
Excerpt: Ruxolitinib di-hydrate was held at select relative humidities to help determine range of physical stability (see table below). The d-hydrate was transferred to a vial, which was then uncapped and placed inside a jar, for a designated time period, containing a saturated aqueous salt solution: […]

[4] = Solubility of crystalline ruxolitinib di-hydrate in organic solvents; conditions: for solubility: organic solvent or mixture, thermodynamic from solid
Excerpt: The resulting ruxolitinib free base readily dissolved in the organic solvents.

[5] = Dehydration of ruxolitinib di-hydrate (resulting solid form)
Excerpt: Dehydration of ruxolitinib di-hydrate results in the isolation of anhydrous crystalline ruxolitinib free base (Form I) (see table below). Form I is described in more detail in Example 15.

[6] = Water activity slurry experiments (XRPD of solid phase); conditions: 20 d
Method: Limited water activity slurries were conducted utilizing ruxolitinib di-hydrate (see table below). The effect of water activity (aw) on the hydration state of the di-hydrate was investigated through competitive water activity trituration experiments (slurries) in various aqueous solvent mixtures. The resulting solid phase was characterized by XRPD. […] Water activity is also related to relative humidity in that RH %=aw×100. Therefore, it is possible to directly relate the stability of an anhydrous/hydrate system in slurry experiments to solid-state stability. […] The method is particularly valuable when relatively slow kinetics of conversion in the solid state prevents reaching true equilibrium in a reasonable timeframe, since solvent-mediated transformation accelerates the conversion process.

[7] = Dynamic vapor sorption (DVS Intrinsic, Method D, not dried); parameters: Hysteresis: unit not given here
Method: The samples were not dried prior to analysis. Sorption and desorption data were collected from 5% to 95% RH in 10% RH increments under a nitrogen purge. The equilibrium criteria used for the analyses were 0.001 dm/dt weight change in 5 minutes with a minimum step time of 30 minutes and maximum equilibration time of 180 minutes with a 3 minute data logging interval. Data were not corrected for the initial moisture content of the sample.

[8] = Target RH 95.0%, sample RH 94.0%
[9] = Target RH 95.0%, sample RH 95.8%

N#CC[C@H](C1CCCC1)n1cc(-c2ncnc3[nH]ccc23)cn1 [Ruxolitinib Di-hydrate, (R)-3-(4-(7H-pyrrolo[2,3-d]pyrimidin-4-yl)-1H-pyrazol-1-yl)-3-cyclopentylpropanenitrile di-hydrate]
Solid form after pre-dried step ([1]; 60° C. under dry N2 (0% RH) for 1 h): dehydrated to form amorphous ruxolitinib free base
Solid form after DVS (XRPD) ([1]; after cycle 5% RH to 95% RH and back to 5% RH, 25° C.): crystalline ruxolitinib di-hydrate
Water re-adsorbed ([1]; at 95% RH, 25° C., after pre-drying at 60° C.): 9.6%
solubility ([2]; aqueous buffer, pH 6.0 (PBS)): 17.4 µg/mL
solubility ([2]; aqueous buffer, pH 6.5 (PBS)): 106 µg/mL
solubility ([2]; aqueous buffer, pH 7.0 (PBS)): 101 µg/mL
solubility ([2]; aqueous buffer, pH 7.4 (PBS)): 100 µg/mL
solubility ([2]; fassif, FeSSIF (pH 6.5)): 112 µg/mL
solubility ([2]; saline or isotonic, Saline (pH 5.5)): 105 µg/mL
solubility ([2]; simulated gastric fluid, 0.1N HCl): > 10700 µg/mL
solubility ([2]; simulated gastric fluid, SGF (pH 1.6)): > 11000 µg/mL
solubility ([2]; FeSSIF (pH 5.0)): 419 µg/mL
solubility ([2]; Water): 111 µg/mL
solubility ([2]; HCl solution, simulated gastric fluid, pH 2.0 (HCl)): 3470 µg/mL
solubility ([2]; KHP buffer, aqueous buffer, pH 3.0 (KHP)): 1570 µg/mL
solubility ([2]; KHP buffer, aqueous buffer, pH 5.5 (KHP)): 107 µg/mL
solubility ([2]; KPH buffer (so in the source), aqueous buffer, pH 4.0 (KPH)): 362 µg/mL
solubility ([2]; acetate buffer, aqueous buffer, pH 5.5 (Acetate)): 93.5 µg/mL
solubility ([2]; aqueous KHP solution, aqueous buffer, pH 5.0 (KHP)): 147 µg/mL
solubility ([2]; aqueous acetate solution, aqueous buffer, pH 4.0 (Acetate)): 186 µg/mL
solubility ([2]; aqueous acetate solution, aqueous buffer, pH 5.0 (Acetate)): 296 µg/mL
solubility ([2]; borate buffer, aqueous buffer, pH 8.5 (Borate)): 112 µg/mL
Result (solid form) ([3]; 0% RH, N2, RT, 1 d): Di-hydrate + Form I
Result (solid form) ([3]; 11% RH, RT, 2 d): Di-hydrate
Result (solid form) ([3]; 11% RH, RT, 14 d): Di-hydrate
Result (solid form) ([3]; 33% RH, RT, 2 d): Di-hydrate
Result (solid form) ([3]; 53% RH, RT, 2 d): Di-hydrate
Result (solid form) ([3]; 98% RH, RT, 2 d): Di-hydrate
Result (solid form) ([3]; 98% RH, RT, 4 d): Di-hydrate
Relative humidity at which the di-hydrate form is physically stable ([3]; during the time tested): above 11 % RH
Relative humidity of conversion to anhydrous crystalline free base form (Form I) ([3]; undetermined value, during the time tested): below 11 % RH
solubility ([4]; acetone): > 500000 µg/mL
solubility ([4]; ethyl acetate): > 200000 µg/mL
solubility ([4]; Ethanol (EtOH)): > 500000 µg/mL
solubility ([4]; Isopropanol (IPA)): > 500000 µg/mL
solubility ([4]; Methanol (MeOH)): > 500000 µg/mL
Behaviour of the hydrate in polar solvents ([4]; polar organic solvents): lost crystalline water
Result (solid form) ([5]; 42° C. oven, 1 d): Di-
Result (solid form) ([5]; 50° C., vacuum oven, 1 d): Form I
Result (solid form) ([5]; 80° C./30 minutes): amorphous
Result (solid form) ([5]; 110° C./20 minutes): amorphous
Result (solid form) ([5]; P2O5 jar, RT, 4 d): Form I
Result (solid form) ([5]; P2O5 jar, RT, 5 d): Form I
Result (solid form) ([5]; P2O5 jar, RT, 13 d): conversion
Result (solid form) ([5]; P2O5 jar, RT, 21 d, di-hydrate crystals): Form I
Result (solid form) ([5]; RT, vacuum oven, 1 d): Form I
Result (solid form) ([6]; 0.34 aw, 75:25 DMSO/H2O): Di-hydrate
Result (solid form) ([6]; 0.42 aw, 70:30 DMSO/H2O): Di-hydrate
Result (solid form) ([6]; 0.68 aw, 50:50 DMSO/H2O): Di-hydrate
Sorp Mass Change ([7]; Target RH 5.0%, sample RH 4.8%): 0.0013%
Desorp Mass Change ([7]; Target RH 5.0%, sample RH 5.6%): 0.0334%
Hysteresis ([7]; Target RH 15.0%): 0.0528
Sorp Mass Change ([7]; Target RH 15.0%, sample RH 15.1%): 0.0412%
Desorp Mass Change ([7]; Target RH 15.0%, sample RH 17.1%): 0.0940%
Hysteresis ([7]; Target RH 25.0%): 0.0461
Sorp Mass Change ([7]; Target RH 25.0%, sample RH 25.0%): 0.0707%
Desorp Mass Change ([7]; Target RH 25.0%, sample RH 25.8%): 0.1168%
Hysteresis ([7]; Target RH 35.0%): 0.0399
Sorp Mass Change ([7]; Target RH 35.0%, sample RH 35.0%): 0.0904%
Desorp Mass Change ([7]; Target RH 35.0%, sample RH 35.9%): 0.1302%
Hysteresis ([7]; Target RH 45.0%): 0.0378
Sorp Mass Change ([7]; Target RH 45.0%, sample RH 45.1%): 0.1069%
Desorp Mass Change ([7]; Target RH 45.0%, sample RH 46.0%): 0.1447%
Hysteresis ([7]; Target RH 55.0%): 0.0357
Sorp Mass Change ([7]; Target RH 55.0%, sample RH 55.1%): 0.1214%
Desorp Mass Change ([7]; Target RH 55.0%, sample RH 56.0%): 0.1572%
Hysteresis ([7]; Target RH 65.0%): 0.0347
Sorp Mass Change ([7]; Target RH 65.0%, sample RH 65.1%): 0.1359%
Desorp Mass Change ([7]; Target RH 65.0%, sample RH 66.0%): 0.1706%
Hysteresis ([7]; Target RH 75.0%): 0.0311
Sorp Mass Change ([7]; Target RH 75.0%, sample RH 74.9%): 0.1561%
Desorp Mass Change ([7]; Target RH 75.0%, sample RH 76.6%): 0.1872%
Hysteresis ([7]; Target RH 85.0%): 0.0233
Sorp Mass Change ([7]; Target RH 85.0%, sample RH 84.8%): 0.1882%
Desorp Mass Change ([7]; Target RH 85.0%, sample RH 87.6%): 0.2115%
Desorp Mass Change [7, 8]: 0.2343%
Sorp Mass Change [7, 8]: 0.2343%
Weight lost upon desorption ([7]; desorption 95 to 5% RH): 0.20%
Weight gained ([7]; from 5 to 95% relative humidity): 0.23%

N#CC[C@H](C1CCCC1)n1cc(-c2ncnc3[nH]ccc23)cn1 [Form I, (R)-3-(4-(7H-pyrrolo[2,3-d]pyrimidin-4-yl)-1H-pyrazol-1-yl)-3-cyclopentylpropanenitrile]
Hygroscopicity ([7]; DVS Method D): hygroscopic
Desorp Mass Change ([7]; Target RH 5.0%, sample RH 5.1%): 5.04%
Sorp Mass Change ([7]; Target RH 5.0%, sample RH 5.4%): 0.00%
Hysteresis ([7]; Target RH 15.0%): 9.78
Sorp Mass Change ([7]; Target RH 15.0%, sample RH 15.6%): 0.06%
Desorp Mass Change ([7]; Target RH 15.0%, sample RH 16.1%): 9.84%
Hysteresis ([7]; Target RH 25.0%): 9.94
Sorp Mass Change ([7]; Target RH 25.0%, sample RH 25.4%): 0.11%
Desorp Mass Change ([7]; Target RH 25.0%, sample RH 25.9%): 10.05%
Hysteresis ([7]; Target RH 35.0%): 10.06
Sorp Mass Change ([7]; Target RH 35.0%, sample RH 35.4%): 0.15%
Desorp Mass Change ([7]; Target RH 35.0%, sample RH 36.0%): 10.21%
Hysteresis ([7]; Target RH 45.0%): 10.16
Sorp Mass Change ([7]; Target RH 45.0%, sample RH 45.5%): 0.19%
Desorp Mass Change ([7]; Target RH 45.0%, sample RH 46.1%): 10.35%
Hysteresis ([7]; Target RH 55.0%): 10.21
Sorp Mass Change ([7]; Target RH 55.0%, sample RH 55.3%): 0.26%
Desorp Mass Change ([7]; Target RH 55.0%, sample RH 56.1%): 10.47%
Hysteresis ([7]; Target RH 65.0%): 4.28
Sorp Mass Change ([7]; Target RH 65.0%, sample RH 65.5%): 6.30%
Desorp Mass Change ([7]; Target RH 65.0%, sample RH 66.2%): 10.58%
Hysteresis ([7]; Target RH 75.0%): 3.65
Sorp Mass Change ([7]; Target RH 75.0%, sample RH 75.3%): 7.04%
Desorp Mass Change ([7]; Target RH 75.0%, sample RH 76.3%): 10.68%
Hysteresis ([7]; Target RH 85.0%): 0.79
Sorp Mass Change ([7]; Target RH 85.0%, sample RH 86.1%): 10.00%
Desorp Mass Change ([7]; Target RH 85.0%, sample RH 89.4%): 10.79%
Desorp Mass Change [7, 9]: 10.83%
Sorp Mass Change [7, 9]: 10.83%
Additional weight loss ([7]; desorption from 15 to 5% RH): 4.8%
Weight loss ([7]; desorption from 95 to 15% RH): 1%
Weight gain ([7]; from 5 to 55% RH): 0.26%
Weight gain ([7]; from 55 to 95% RH): 10.6%
Solid form of post DVS sample ([7]; less crystalline than the starting material): Form I
